These results are taken from patent US10407404B2, “Physical form of a SGR modulator” (ASTRAZENECA AB, priority 2016, dated 2019).

Holding throughout (assay type): cell-based
In experiment [1] the test system is tyrosine aminotransferase (TAT) mRNA expression. Briefly: Tyrosine aminotransferase (TAT) mRNA expression in vitro assay in human primary hepatocytes. The following applies: 18 hr, human cryopreserved primary hepatocytes, versus DMSO control, 2^-ΔΔCt, range and n in brackets. How it is done: The impact of test compounds on hyperglycemic events were assessed by looking at changes in mRNA expression of the gene encoding tyrosine aminotransferase (TAT), which is under direct regulation of the glucocorticoid receptor in human hepatocytes.
Human cryopreserved primary hepatocytes (BioreclamationIVT, M00995-P lot EPB) were plated to 24-well collagen I-coated plates (Becton Dickinson, 354408). Cells were allowed to attach for 4 hr before being challenged with test compounds overnight (18 hr). Cells were harvested and total RNA isolated using RNeasy Plus Mini Kit (Qiagen, 74136) followed by cDNA synthesis using High Capacity cDNA reverse transcription kit (Applied Biosystems, 4368813). Real-time RT PCR was performed on an Applied Biosystems 7500 PCR cycler, using Taqman primers for TAT (Life technologies, Hs00356930_ml) and the reference gene hypoxanthine phosphoribosyltransferase 1 (Life technologies, Hs99999909_ml).
Human cryopreserved primary hepatocytes were transferred in to pre-warmed (37° C.) plating medium (BioreclamationIVT, Z990003) and diluted to 0.7×10^6 viable cells/mL. […] Real-time RT PCR was carried out using TaqMan reagents (Life technologies) on the 7500 PCR cycler, and Ct-values for TAT gene expression was normalised to the control gene and expressed as fold change compared to DMSO control using the 2^−ΔΔCt method.

The test system of experiment [2] is release of TNFα from whole blood stimulated with LPS. The experiment is described as follows: In vitro human whole blood: inhibition of TNFα release after LPS stimulation. The note with it: LPS 30 μg/mL, 18 hr, read-out: TNFα pIC50 (converted). On the procedure: The anti-inflammatory activity of compounds and prednisolone was determined in vitro by their ability to inhibit the release of TNFα from whole blood stimulated with LPS. Venous blood from human donors was collected and anti-coagulated with sodium heparin and transferred to a sterile polystyrene round bottomed plate (Corning) at 190 μL per well.
Compounds were prepared from 10 mM stock solutions in dimethylsulfoxide (DMSO, Sigma) by serially diluting 1/3 in DMSO to produce a master plate with the top concentration at 3.33 mM and the lowest concentration at 0.1 μM. Compounds from the master plate were added to the blood at 1 μL/well (1/200) dilution to give final concentrations ranging between […] and 0.5 nM. Control wells received 1 μL DMSO only and the final DMSO concentration in all wells was 0.5%. […]
TNFα protein levels were determined using an AlphaLISA hTNFα kit (Perkin Elmer) according to the manufacturer's instructions. […] The samples were read at 615 nm with excitation at 680 nm using an Envision plate reader. TNFα in the samples was determined by extrapolation from the standard curve and expressed as pg/mL.
The % inhibition of TNFα was determined by the equation: % inhibition=(1−(A−B)/(C−B))×100 Here, A=TNFα in LPS stimulated samples containing compound, B=TNFα in unstimulated samples. and C=TNFα in LPS stimulated samples without compound. […]

Experiment [3] deals with T1, human glucocorticoid receptor (GR) (Homo sapiens, UniProt P04150).
T1 construct: endogenous in cells; host or cells: ChagoK1 18:7:2 s4/GRE (human bronchogenic carcinoma ChaGo K1, ATCC HTB 168, stably carrying MMTV-GRE-LacZ reporter)
T1 sequence (P04150 1-777): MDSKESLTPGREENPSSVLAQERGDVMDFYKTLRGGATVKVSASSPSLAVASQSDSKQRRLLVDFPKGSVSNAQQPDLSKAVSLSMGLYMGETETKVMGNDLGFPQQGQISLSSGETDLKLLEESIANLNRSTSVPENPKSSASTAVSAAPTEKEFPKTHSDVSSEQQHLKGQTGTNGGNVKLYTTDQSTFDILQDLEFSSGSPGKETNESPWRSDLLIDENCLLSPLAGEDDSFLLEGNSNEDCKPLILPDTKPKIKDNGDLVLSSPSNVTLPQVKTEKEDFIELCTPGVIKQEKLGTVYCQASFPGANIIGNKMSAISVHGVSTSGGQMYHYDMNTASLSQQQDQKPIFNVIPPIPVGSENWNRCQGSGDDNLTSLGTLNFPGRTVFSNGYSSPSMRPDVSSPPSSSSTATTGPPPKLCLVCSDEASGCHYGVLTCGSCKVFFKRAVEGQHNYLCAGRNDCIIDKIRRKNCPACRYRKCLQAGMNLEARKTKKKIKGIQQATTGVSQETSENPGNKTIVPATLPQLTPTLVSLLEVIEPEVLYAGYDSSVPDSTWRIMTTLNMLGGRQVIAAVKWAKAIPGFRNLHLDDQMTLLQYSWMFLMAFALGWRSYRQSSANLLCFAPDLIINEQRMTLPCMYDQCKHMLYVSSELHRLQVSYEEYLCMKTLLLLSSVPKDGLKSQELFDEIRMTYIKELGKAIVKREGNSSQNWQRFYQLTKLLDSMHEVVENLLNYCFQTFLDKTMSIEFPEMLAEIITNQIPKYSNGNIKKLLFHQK
The experiment is described as follows: GRE Agonist Assay (ChagoK1 18:7:2 s4/GRE MMTV-GRE-LacZ reporter cell line). An excerpt: (§1) A reporter cell line (ChagoK1 18:7:2 s4/GRE) was established by stable transfection of the human bronchogenic carcinoma cell line, ChaGo K1 (ATCC: HTB 168) with a MMTV-GRE-LacZ reporter construct. The generated cell line allows for identification of compounds showing agonist activity at the human glucocorticoid receptor (GR) via induction of LacZ gene expression. Ligand-activated GR binds to the Glucocorticoid Response Element (GRE) in the promoter of the LacZ gene and transcription is initiated. The resulting beta-galactosidase activity is measured through a colour reaction (change in absorbance).
Cryo-preserved ChagoK1 18:7:2 s4/GRE cells were suspended in RPMI medium with 10% FBS, 1% NEAA and 1% sodium pyruvate, and seeded as 50000 cells/200 ul/well in 96-well plates and cultured at 37° C. with 5% CO2 and 95% humidity for 24 hours. 1 μl compound was added at different concentrations to the cells and incubated for another 24 hours. Cells were washed once in PBS and lysed with 50 al of 0.1% Triton-X for 10 min at room temperature. […] The plates were measured at 420 nm for absorbance in a SpectraMax reader (Molecular Device).
The relative efficacy (% effect) of a compound is calculated based on the full agonist effect of dexamethasone: % Effect=((Sample abs−min abs)/(max abs−min abs))×100 […]

Experiment [4] deals with T1, human glucocorticoid receptor (GR). Briefly: GRE Antagonist Assay (ChagoK1 18:7:2 s4/GRE reporter cell line, dexamethasone pre-stimulated). The note with it: ChaGo-K-1, relative to full antagonist effect of Mifepristone (RU486), read-out: TA antagonist Observed max Effect at 1 μM (%).
Description: as §1, with “celline,” for “cell line,”, “antagonist” for “agonist”, “reduction” for “induction”, “Dexamethasone-activated” for “Ligand-activated”, “Antagonistic properties of compounds are assessed as” for “The resulting”, “intensity reduction from pre-stimulation with dexamethasone” for “activity is measured”
Cryo-preserved ChagoK1 18:7:2 s4/GRE cells were suspended in RPMI medium with 10% FBS, 1% NEAA and 1% sodium pyruvate, and seeded as 50000 cells/200 ul/well in 96-well plates and cultured at 37° C. with 5% CO2 and 95% humidity for 24 hr. Cells were pre-stimulated with 2 μl dexamethasone (70 nM final conc) for 4-5 hr, before addition of 1 μl compound at different concentrations and incubation for an additional 24 hr. […] The plates were measured at 420 nm for absorbance in a SpectraMax reader (Molecular Device).
The relative efficacy (% effect) of a compound is calculated based on the full antagonist effect of the reference compound Mifepristone (RU486): % Effect=((Sample abs−min abs)/(max abs−min abs))×100 […]

Structures are written as SMILES.

With `C[C@]12C=CC(=O)C=C1CC[C@@H]1[C@@H]2[C@@H](O)C[C@@]2(C)[C@H]1CC[C@]2(O)C(=O)CO` [Prednisolone, reference compound], in experiment [1], the “Fold Change Tyrosine Aminotransferase Gene Expression Relative to Control (1 μM)” value was 2.5 (1.4-4.2, n = 8). Also, the IC50 in experiment [2] is 0.316 µM.

For `CC(C)[C@H](NC(=O)C(C)(F)F)[C@H](Oc1ccc2c(cnn2-c2ccc(=O)n(C)c2)c1)c1ccccc1` [Example 1, 2,2-difluoro-N-[(1R,2S)-3-methyl-1-{[1-(1-methyl-6-oxo-1,6-dihydropyridin-3-yl)-1H-indazol-5-yl]oxy}-1-phenylbutan-2-yl]propanamide], the Emax at 1 µM stood at 39% in experiment [3] (ChaGo-K-1, at 1 μM, relative to full agonist effect of dexamethasone, read-out: TA agonist Observed max Effect at 1 μM (%)) and 70% in experiment [4]. Also, the EC50 in experiment [3] (transactivation, agonist mode, 24 h incubation, read-out: TA agonist pEC50 (converted)) was 0.0126 µM. Also, in experiment [2], the IC50 was 0.631 µM.
